In ChEMBL document CHEMBL2157891 (J Med Chem, 2012):
One block for each molecule: values may come before it. Calls of active or inactive are those of the source. The calls are words filed in the database; no cut-off is given here.

Legend:
[1] = tested on: MDA-MB-231; test: cells; details: Homo sapiens, MDA-MB-231, 96 h
[2] = tested on: SK-OV-3; test: cells; details: Homo sapiens, SK-OV-3, 96 h
[3] = tested on: MDA-MB-231; test: Induction of apoptosis in human MDA-MB-231 cells assessed as caspase 3 cleavage at 3 nM after 24 hrs by Western blot analysis; format: functional, cell-based
[4] = tested on: MDA-MB-231; test: Induction of apoptosis in human MDA-MB-231 cells assessed as caspase 8 cleavage at 3 nM after 24 hrs by Western blot analysis; format: functional, cell-based
[5] = tested on: MDA-MB-231; test: Induction of apoptosis in human MDA-MB-231 cells assessed as PARP cleavage at 3 nM after 24 hrs by Western blot analysis; format: functional, cell-based
[6] = tested on: SK-OV-3; test: Induction of apoptosis in human SKOV3 cells assessed as caspase 3 cleavage at 3 nM after 24 hrs by Western blot analysis; format: functional, cell-based
[7] = tested on: SK-OV-3; test: Induction of apoptosis in human SKOV3 cells assessed as caspase 8 cleavage at 3 nM after 24 hrs by Western blot analysis; format: functional, cell-based
[8] = tested on: SK-OV-3; test: Induction of apoptosis in human SKOV3 cells assessed as PARP cleavage at 3 nM after 24 hrs by Western blot analysis; format: functional, cell-based
[9] = biological target: Baculoviral IAP repeat-containing protein 2 (Homo sapiens, UniProt Q13490); test: Binding affinity to BIR3 domain of cIAP1 by fluorescence polarization assay
[10] = tested on: MDA-MB-231; test: Induction of apoptosis in human MDA-MB-231 cells assessed as caspase 3 cleavage at 10 nM after 24 hrs by Western blot analysis; format: functional, cell-based
[11] = tested on: MDA-MB-231; test: Induction of apoptosis in human MDA-MB-231 cells assessed as caspase 8 cleavage at 10 nM after 24 hrs by Western blot analysis; format: functional, cell-based
[12] = tested on: MDA-MB-231; test: Induction of apoptosis in human MDA-MB-231 cells assessed as PARP cleavage at 300 nM after 24 hrs by Western blot analysis; format: functional, cell-based
[13] = tested on: SK-OV-3; test: Induction of apoptosis in human SKOV3 cells assessed as caspase 3 cleavage at 10 nM after 24 hrs by Western blot analysis; format: functional, cell-based
[14] = tested on: SK-OV-3; test: Induction of apoptosis in human SKOV3 cells assessed as caspase 8 cleavage at 10 nM after 24 hrs by Western blot analysis; format: functional, cell-based
[15] = tested on: SK-OV-3; test: Induction of apoptosis in human SKOV3 cells assessed as PARP cleavage at 300 nM after 24 hrs by Western blot analysis; format: functional, cell-based

SMILES: CN[C@@H](C)C(=O)N[C@H]1CN(C(=O)CCCCCCC(=O)N2CC[C@H]3CC[C@@H](C(=O)NC(c4ccccc4)c4ccccc4)N3C(=O)[C@@H](NC(=O)[C@H](C)NC)C2)CC[C@H]2CC[C@@H](C(=O)NC(c3ccccc3)c3ccccc3)N2C1=O
- IC50 [1]: 17.2 nM
- IC50 [2]: 11 nM

SMILES: CN[C@@H](C)C(=O)N[C@H]1CN(C(=O)CCCCc2ccc(CCCCC(=O)N3CC[C@H]4CC[C@@H](C(=O)NC(c5ccccc5)c5ccccc5)N4C(=O)[C@@H](NC(=O)[C@H](C)NC)C3)cc2)CC[C@H]2CC[C@@H](C(=O)NC(c3ccccc3)c3ccccc3)N2C1=O
- Activity [3]: Active
- Activity [4]: Active
- Activity [5]: Active
- Activity [6]: Active
- Activity [7]: Active
- Activity [8]: Active
- IC50 [1]: 3.4 nM
- IC50 [2]: 9.6 nM

SMILES: CN[C@@H](C)C(=O)N[C@H]1CCCC[C@H]2CC[C@@H](C(=O)N[C@@H](c3ccccc3)c3cn(CCCCc4ccc(CCCCn5cc([C@@H](NC(=O)[C@@H]6CC[C@@H]7CCCC[C@H](NC(=O)[C@H](C)NC)C(=O)N76)c6ccccc6)nn5)cc4)nn3)N2C1=O
- Ki [9]: 0.5 nM
- IC50 [1]: 6.8 nM
- IC50 [2]: 16 nM

SMILES: CN[C@@H](C)C(=O)N[C@H]1CN(C(=O)CCCCCCCCC(=O)N2CC[C@H]3CC[C@@H](C(=O)NC(c4ccccc4)c4ccccc4)N3C(=O)[C@@H](NC(=O)[C@H](C)NC)C2)CC[C@H]2CC[C@@H](C(=O)NC(c3ccccc3)c3ccccc3)N2C1=O
- Activity [3]: Active
- Activity [4]: Active
- Activity [5]: Active
- Activity [6]: Active
- Activity [7]: Active
- Activity [8]: Active
- IC50 [1]: 7.5 nM
- IC50 [2]: 3.1 nM

SMILES: CN[C@@H](C)C(=O)N[C@H]1CCCC[C@H]2CC[C@@H](C(=O)N[C@@H](c3ccccc3)c3cn(CCCCCCCCn4cc([C@@H](NC(=O)[C@@H]5CC[C@@H]6CCCC[C@H](NC(=O)[C@H](C)NC)C(=O)N65)c5ccccc5)nn4)nn3)N2C1=O
- IC50 [9]: 2.8 nM
- Ki [9]: < 0.5 nM

SMILES: CN[C@@H](C)C(=O)N[C@H]1CN(C(=O)CCCCCCCCCCC(=O)N2CC[C@H]3CC[C@@H](C(=O)NC(c4ccccc4)c4ccccc4)N3C(=O)[C@@H](NC(=O)[C@H](C)NC)C2)CC[C@H]2CC[C@@H](C(=O)NC(c3ccccc3)c3ccccc3)N2C1=O
- IC50 [1]: 10.6 nM
- IC50 [2]: 12 nM

- IC50 [1]: 14.8 nM
- IC50 [2]: 9.9 nM
SMILES: CN[C@@H](C)C(=O)N[C@H]1CN(C(=O)CCCCC(=O)N2CC[C@H]3CC[C@@H](C(=O)NC(c4ccccc4)c4ccccc4)N3C(=O)[C@@H](NC(=O)[C@H](C)NC)C2)CC[C@H]2CC[C@@H](C(=O)NC(c3ccccc3)c3ccccc3)N2C1=O

- IC50 [1]: 115 nM
- IC50 [2]: 250 nM
SMILES: CN[C@@H](C)C(=O)N[C@H]1CN(C(C)=O)CC[C@H]2CC[C@@H](C(=O)NC(c3ccccc3)c3ccccc3)N2C1=O
- Activity [10]: Active
- Activity [11]: Active
- Activity [12]: Active
- Activity [13]: Active
- Activity [14]: Active
- Activity [15]: Active

- IC50 [1]: 13.8 nM
- IC50 [2]: 27 nM
SMILES: CN[C@@H](C)C(=O)N[C@H]1CN(C(=O)CCC(=O)N2CC[C@H]3CC[C@@H](C(=O)NC(c4ccccc4)c4ccccc4)N3C(=O)[C@@H](NC(=O)[C@H](C)NC)C2)CC[C@H]2CC[C@@H](C(=O)NC(c3ccccc3)c3ccccc3)N2C1=O

- IC50 [1]: 50.8 nM
- IC50 [2]: 180 nM
SMILES: CN[C@@H](C)C(=O)N[C@H]1CN(C(=O)c2ccc(C(=O)N3CC[C@H]4CC[C@@H](C(=O)NC(c5ccccc5)c5ccccc5)N4C(=O)[C@@H](NC(=O)[C@H](C)NC)C3)cc2)CC[C@H]2CC[C@@H](C(=O)NC(c3ccccc3)c3ccccc3)N2C1=O

- IC50 [1]: 4.7 nM
- IC50 [2]: 4.7 nM
SMILES: CN[C@@H](C)C(=O)N[C@H]1CN(C(=O)CCCCOCCCCC(=O)N2CC[C@H]3CC[C@@H](C(=O)NC(c4ccccc4)c4ccccc4)N3C(=O)[C@@H](NC(=O)[C@H](C)NC)C2)CC[C@H]2CC[C@@H](C(=O)NC(c3ccccc3)c3ccccc3)N2C1=O
